Measured values from US7067506B2, “Compounds useful for inhibiting Chk1” (ICOS Corporation, priority 2001, dated 2006).
Each block holds one molecule with its values, some of them ahead of it.

Tests used:
human tumor cell lines = assay: Enhancement of cell killing by chemotherapeutic drugs (3H-thymidine uptake); type: cell-based
Procedure: To test the hypothesis that inhibition of Chk1 potentiates the killing effect of DNA-damaging agents, cells were incubated in the presence of selective Chk1 inhibitors and either irradiation or chemical DNA-damaging agents. Cells plated at a density of 1000-2000 per well in 96-well microtitre plates were grown in RMPI 1640 containing 10% FBS, 100 U/mL penicillin and 100 μg/mL streptomycin for 18 hours at 37° C. in a humidified incubator with 5% CO2. Cells tested included HeLa, ACHN, 786-0, HCT116, SW620, HT29, Colo205, SK-MEL-5, SK-MEL-28, A549, H322, OVCAR-3, SK-OV-3, MDA-MB-231, MCF-7, PC-3, HL-60, K562, and MOLT4. All cell line designations refer to human cell lines and refer to the following:
Cells were treated with media containing chemotherapeutic drugs alone or chemotherapeutic drugs and Compounds 12 and 29. Cells were incubated for approximately 5 days before growth was measured by determination of levels of ^3H-thymidine uptake. Chemotherapeutic drugs included etoposide, doxorubicin, cisplatin, chlorambucil, 5-fluorouracil (5-FU). The drug concentration necessary to inhibit cell growth to 90% of untreated control cells was defined as the GL90. At concentrations less than 100 μM, Compounds 12 and 29 enhanced the killing of 5-FU from 2- to 10-fold.
Compounds 2 and 12 were tested with additional antimetabolites, including methotrexate, hydroxyurea, 2-chloroadenosine, fludarabine, azacytidine, and gemcitibine for an ability to enhance killing of the agents.

[1] = system: Colo205 and HT29 xenograft tumors; assay: Colon tumor xenograft model; type: in vivo, Balb/c (nu/nu) mice; conditions: i.p. 50, 100 or 150 mg/kg; tumor weight by calipers
Procedure: To test the ability of the Chk1 inhibitors to enhance the killing of tumors by 5-FU in mice, xenograft tumor models using colon tumor cell lines were established. Colo205 and HT29 cells (human colon carcinoma) were used to propagate xenograft tumors in 6-8 week old female […] Balb/c (nu/nu) mice. Mice were maintained in a laminar airflow cabinet under pathogen-free conditions and fed sterile food and water ad libitum. Cell lines were grown to subconfluence in RPMI 1640 media supplemented with 10% FBS, 100 U/mL penicillin, 100 μg/mL streptomycin, and 1.5 mM L-glutamine in a 5% CO2 humidified environment. Single cell suspensions were prepared in CMF-PBS, and cell concentration adjusted to 1×10^8 cells/mL. Mice were inoculated subcutaneously (s.c). on the right flank or right leg with a total of 1×10^7 cells (100 μL).
Mice were randomized (5 mice/group) into four treatment groups and used when tumors reached a weight of 75-100 mg (usually 7-11 days post-inoculation). Tumors were measured with vernier calipers and tumor weights were estimated using the empirically derived formula: tumor weight (mg)=tumor length (mm)×tumor width (mm)^2/3.3. Treatment consisted of i) 100 μL intraperitoneal (i.p). injection of 5-FU at 50 mg/kg, 100 mg/kg, or 150 mg/kg. […] Tumor size was monitored every other day for the duration of the experiment.

SMILES: COc1cc(NC(=O)CCNC2CCCC2)ccc1NC(=O)Nc1cnccn1 [Compound 2, 3-cyclopentylamino-N-[3-methoxy-4-(3-pyrazin-2-yl-ureido)phenyl]-propionamide]
- enhancement of killing of cells to 5-azacytidine (human tumor cell lines; combination with 5-azacytidine): enhance the killing of cells
- enhancement of killing of cells to fludarabine (human tumor cell lines; combination with fludarabine): enhance the killing of cells
- enhancement of killing of cells to hydroxyurea (human tumor cell lines; combination with hydroxyurea): enhance the killing of cells
- enhancement of killing of cells to methotrexate (human tumor cell lines; combination with methotrexate): enhance the killing of cells

SMILES: O=c1[nH]cc(F)c(=O)[nH]1 [Compound 5-FU, 5-fluorouracil]
- tumor growth [1]: dose-dependent delay in tumor growth

- melting point: 142 to 143 °C
SMILES: COc1cc(CN(C)Cc2ccccc2)ccc1NC(=O)Nc1cnc(C)cn1 [Compound 340, 1-{4-[(Benzyl-methyl-amino)-methyl]-2-methoxy-phenyl}-3-(5-methyl-pyrazin-2-yl)-urea]

- melting point: 168 to 169 °C
SMILES: COc1cc(CN)ccc1NC(=O)Nc1cnc(C)cn1 [Compound 342, 1-(4-Aminomethyl-2-methoxy-phenyl)-3-(5-methyl-pyrazin-2-yl)-urea]
